Experimental data: US10357493B2, “Metalloenzyme inhibitor compounds” (Selenity Therapeutics (Bermuda), Ltd., priority 2017, dated 2019)

Experiments:
[1] = molecular target: HDAC6 (Homo sapiens (Human), UniProt Q9UBN7); experiment: HDAC6 enzymatic assay; format: biochemical; conditions: read-out: Human HDAC6 IC50
How it was run: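 Following a 17 hour room-temperature incubation of 2 ng HDAC6 with 10 uM substrate and compound, 50 μl developer was added for another 20 minutes, and fluorescence (excitation 360 nm, emission 460 nm) was recorded. Activity was normalized to no-compound (100%) and no-enzyme (0%) wells, and IC50 came from sigmoidal dose-response fitting in Graphpad Prism.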

[2] = molecular target: HDAC1 (Homo sapiens (Human), UniProt Q13547); experiment: HDAC1 enzymatic assay; format: biochemical; conditions: read-out: Human HDAC1 IC50
Chain of HDAC1 (Q13547 whole entry): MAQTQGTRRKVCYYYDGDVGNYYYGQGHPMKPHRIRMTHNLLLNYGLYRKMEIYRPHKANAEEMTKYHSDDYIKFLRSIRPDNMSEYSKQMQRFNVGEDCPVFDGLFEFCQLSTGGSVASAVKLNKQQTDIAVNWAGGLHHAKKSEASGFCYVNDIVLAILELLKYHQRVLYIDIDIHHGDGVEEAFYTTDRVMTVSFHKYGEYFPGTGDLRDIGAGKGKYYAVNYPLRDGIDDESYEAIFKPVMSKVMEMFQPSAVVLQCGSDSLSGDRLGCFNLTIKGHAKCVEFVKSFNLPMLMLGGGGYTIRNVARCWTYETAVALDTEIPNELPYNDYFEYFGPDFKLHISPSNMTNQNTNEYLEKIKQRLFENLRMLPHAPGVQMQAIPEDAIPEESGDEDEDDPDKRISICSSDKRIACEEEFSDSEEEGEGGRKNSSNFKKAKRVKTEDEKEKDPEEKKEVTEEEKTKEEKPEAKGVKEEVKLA
How it was run: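 Compound inhibition of human HDAC1 (0.5 ng enzyme, 10 uM substrate) was assessed by fluorescence after developer treatment, excitation 360 nm and emission 460 nm. Percent activity was normalized to no-compound (100%) and no-enzyme (0%) controls, plotted against concentration, and fitted to a sigmoidal dose-response curve in Graphpad Prism to obtain IC50 at half-maximal activity.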

Chain of HDAC6 (Q9UBN7 whole entry): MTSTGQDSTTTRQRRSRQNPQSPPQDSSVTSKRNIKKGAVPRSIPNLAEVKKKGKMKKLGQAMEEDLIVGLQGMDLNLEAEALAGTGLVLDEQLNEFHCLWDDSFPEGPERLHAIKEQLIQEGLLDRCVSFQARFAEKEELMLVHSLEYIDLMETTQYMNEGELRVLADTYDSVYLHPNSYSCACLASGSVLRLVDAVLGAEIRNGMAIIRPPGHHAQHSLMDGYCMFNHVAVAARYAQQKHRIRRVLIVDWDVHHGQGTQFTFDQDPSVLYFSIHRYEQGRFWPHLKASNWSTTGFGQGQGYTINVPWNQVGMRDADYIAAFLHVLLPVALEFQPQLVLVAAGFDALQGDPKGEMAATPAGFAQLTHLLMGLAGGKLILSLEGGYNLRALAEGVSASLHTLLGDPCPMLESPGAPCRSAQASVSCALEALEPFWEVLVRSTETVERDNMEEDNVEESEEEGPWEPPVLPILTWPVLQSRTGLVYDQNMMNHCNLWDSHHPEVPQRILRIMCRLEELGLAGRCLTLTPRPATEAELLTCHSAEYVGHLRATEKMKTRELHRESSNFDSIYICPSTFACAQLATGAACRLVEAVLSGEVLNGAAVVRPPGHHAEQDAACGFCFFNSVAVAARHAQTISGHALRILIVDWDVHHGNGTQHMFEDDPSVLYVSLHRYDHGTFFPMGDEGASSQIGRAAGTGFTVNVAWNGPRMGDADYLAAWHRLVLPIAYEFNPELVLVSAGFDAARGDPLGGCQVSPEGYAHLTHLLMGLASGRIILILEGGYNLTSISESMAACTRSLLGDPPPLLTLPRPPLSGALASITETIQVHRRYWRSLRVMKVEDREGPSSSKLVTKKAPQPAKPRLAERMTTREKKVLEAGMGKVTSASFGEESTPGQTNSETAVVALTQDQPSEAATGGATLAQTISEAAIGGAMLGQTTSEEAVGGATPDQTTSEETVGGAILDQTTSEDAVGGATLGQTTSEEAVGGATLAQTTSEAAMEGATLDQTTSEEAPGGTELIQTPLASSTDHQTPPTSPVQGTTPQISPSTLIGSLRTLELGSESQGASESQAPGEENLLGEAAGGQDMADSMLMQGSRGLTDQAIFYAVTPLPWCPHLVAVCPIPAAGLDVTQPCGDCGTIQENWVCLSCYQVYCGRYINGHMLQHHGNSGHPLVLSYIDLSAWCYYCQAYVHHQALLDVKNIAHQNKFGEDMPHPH

| SMILES | IC50 [1] | IC50 [2] |
| --- | --- | --- |
| O=C(Nc1ccccc1)C(Nc1ncc(-c2nnc(C(F)F)o2)cn1)c1ccc(F)cc1 (centres unmarked) [Example 35, 2-((5-(5-(difluoromethyl)-1,3,4-oxadiazol-2-yl)pyrimidin-2-yl)amino)-2-(4-fluorophenyl)-N-phenylacetamide] | 170 nM | > 30000 nM |
| Fc1ccc(C(Nc2ncc(-c3nnc(C(F)F)o3)cn2)C2CC2)cc1 (centres unmarked) [Example 36, N-(cyclopropyl(4-fluorophenyl)methyl)-5-(5-(difluoromethyl)-1,3,4-oxadiazol-2-yl)pyrimidin-2-amine] | 64 nM | > 30000 nM |
| Fc1ccc(C2(Nc3ncc(-c4nnc(C(F)F)o4)cn3)CCC(F)(F)CC2)cc1 [Example 37, N-(4,4-difluoro-1-(4-fluorophenyl)cyclohexyl)-5-(5-(difluoromethyl)-1,3,4-oxadiazol-2-yl)pyrimidin-2-amine] | 180 nM | > 30000 nM |
| CS(=O)(=O)NCC(Nc1ncc(-c2nnc(C(F)F)o2)cn1)c1ccc(F)cc1 (centres unmarked) [Example 38, N-(2-((5-(5-(difluoromethyl)-1,3,4-oxadiazol-2-yl)pyrimidin-2-yl)amino)-2-(4-fluorophenyl)ethyl)methanesulfonamide] | 29 nM | > 30000 nM |
| O=S(=O)(NCC(Nc1ncc(-c2nnc(C(F)F)o2)cn1)c1ccc(F)cc1)c1ccccc1 (centres unmarked) [Example 39, N-(2-((5-(5-(difluoromethyl)-1,3,4-oxadiazol-2-yl)pyrimidin-2-yl)amino)-2-(4-fluorophenyl)ethyl)benzenesulfonamide] | 50 nM | > 30000 nM |
| COc1ccccc1C1(Nc2ncc(-c3nnc(C(F)(F)F)o3)cn2)CC1 [Example 40, N-(1-(2-methoxyphenyl)cyclopropyl)-5-(5-(trifluoromethyl)-1,3,4-oxadiazol-2-yl)pyrimidin-2-amine] | 220 nM | > 30000 nM |
| COc1cccc(C2(Nc3ncc(-c4nnc(C(F)(F)F)o4)cn3)CC2)c1 [Example 41, N-(1-(3-methoxyphenyl)cyclopropyl)-5-(5-(trifluoromethyl)-1,3,4-oxadiazol-2-yl)pyrimidin-2-amine] | 250 nM | > 30000 nM |
| COc1ccc(C2(Nc3ncc(-c4nnc(C(F)(F)F)o4)cn3)CC2)cc1 [Example 42, N-(1-(4-methoxyphenyl)cyclopropyl)-5-(5-(trifluoromethyl)-1,3,4-oxadiazol-2-yl)pyrimidin-2-amine] | 250 nM | > 30000 nM |
| COc1cccc(C2(Nc3ncc(-c4nnc(C(F)F)o4)cn3)CC2)c1 [Example 43, 5-(5-(difluoromethyl)-1,3,4-oxadiazol-2-yl)-N-(1-(3-methoxyphenyl)cyclopropyl)pyrimidin-2-amine] | 39 nM | > 30000 nM |
| COc1ccc(C2(Nc3ncc(-c4nnc(C(F)F)o4)cn3)CC2)cc1 [Example 44, 5-(5-(difluoromethyl)-1,3,4-oxadiazol-2-yl)-N-(1-(4-methoxyphenyl)cyclopropyl)pyrimidin-2-amine] | 44 nM | > 30000 nM |
| FC(F)c1nnc(-c2cnc(NC3(c4ccc(C(F)(F)F)cc4)CC3)nc2)o1 [Example 45, 5-(5-(difluoromethyl)-1,3,4-oxadiazol-2-yl)-N-(1-(4-(trifluoromethyl)phenyl)cyclopropyl) pyrimidin-2-amine] | 64 nM | > 30000 nM |
| COc1ccccc1C1(Nc2ncc(-c3nnc(C(F)F)o3)cn2)CC1 [Example 46, 5-(5-(difluoromethyl)-1,3,4-oxadiazol-2-yl)-N-(1-(2-methoxyphenyl)cyclopropyl)pyrimidin-2-amine] | 23 nM | > 30000 nM |
| FC(F)c1nnc(-c2cnc(NC3(c4ccc(Br)cc4)CC3)nc2)o1 [Example 47, N-(1-(4-bromophenyl)cyclopropyl)-5-(5-(difluoromethyl)-1,3,4-oxadiazol-2-yl)pyrimidin-2-amine] | 27 nM | > 30000 nM |
